Reference: patent US9884825B2, “Curcumin analogs and methods of making and using thereof” (Georgia State University Research Foundation, Inc., priority 2012, dated 2018)

Row | Structure (SMILES) | melting point
1 | CCCn1cc(CN2CC(=Cc3ccc(CC)cc3)C(=O)C(=Cc3ccc(CC)cc3)C2)nn1 [12a, 3,5-Bis(4-ethylbenzylidene)-1-((1-propyl-1H-1,2,3-triazol-4-yl)methyl)piperidin-4-one] | 149 °C
2 | C#CCN1CC(=Cc2ccc(C(C)(C)C)cc2)C(=O)C(=Cc2ccc(C(C)(C)C)cc2)C1 [10d, 3,5-Bis(4-tert-butylbenzylidene)-1-(prop-2-ynyl)piperidin-4-one] | 182 °C
3 | CCN1C/C(=C\c2ccc(C(C)(C)C)cc2)C(=O)/C(=C/c2ccc(C(C)(C)C)cc2)C1 [6i, 3,5-Bis(4-tert-butylbenzylidene)-1-ethylpiperidin-4-one] | 111 °C
4 | CCCCc1ccc(/C=C2\CN(S(=O)(=O)c3ccc(C)cc3)C/C(=C\c3ccc(CCCC)cc3)C2=O)cc1 [3h, 3,5-Bis(4-butylbenzylidene)-1-tosylpiperidin-4-one] | 148 °C
5 | CCc1ccc(/C=C2\CN(S(=O)(=O)c3ccc(C)cc3)C/C(=C\c3ccc(CC)cc3)C2=O)cc1 [3b, 3,5-Bis(4-etbylbenzylidene)-1-tosylpiperidin-4-one] | 165 °C
6 | CCCn1cc(CN2CC(=Cc3ccc(C(C)(C)C)cc3)C(=O)C(=Cc3ccc(C(C)(C)C)cc3)C2)nn1 [14a, 3,5-Bis(4-tert-butylbenzylidene)-1-((1-propyl-1H-1,2,3-triazol-4-yl)methyl)piperidin-4-one] | 182 °C
7 | Cc1ccc(S(=O)(=O)N2C/C(=C\c3ccc(Cl)cc3)C(=O)/C(=C/c3ccc(Cl)cc3)C2)cc1 [3e, 3,5-Bis(4-chlorobenzylidene)-1-tosylpiperidin-4-one] | 209 °C
8 | Cc1ccc(/C=C2\CN(Cc3ccccc3)C/C(=C\c3ccc(C)cc3)C2=O)cc1 [5a, 1-Benzyl-3,5-bis(4-methylbenzylidene)piperidin-4-one] | 170 °C
9 | CCCc1ccc(C=C2CN(Cc3cn(CCC)nn3)CC(=Cc3ccc(CCC)cc3)C2=O)cc1 [15a, 1-[(1-Propyl-1H-1,2,3-triazol-4-yl)methyl]-3,5-bis(4-propylbenzylidene)piperidin-4-one] | 133 °C
10 | C#CCN1CC(=Cc2ccc(CCC)cc2)C(=O)C(=Cc2ccc(CCC)cc2)C1 [10e, 1-(Prop-2-ynyl)-3,5-bis(4-propylbenzylidene)piperidin-4-one] | 96 °C
11 | CCCCc1ccc(C=C2CN(Cc3cn(CCC)nn3)CC(=Cc3ccc(CCCC)cc3)C2=O)cc1 [16a, 3,5-Bis(4-butylbenzylidene)-1-[(1-propyl-1H-1,2,3-triazol-4-yl)methyl]piperidin-4-one] | 127 °C
12 | CCCCCn1cc(CN2CC(=Cc3ccc(CCCC)cc3)C(=O)C(=Cc3ccc(CCCC)cc3)C2)nn1 [16c, 3,5-Bis(4-butylbenzylidene)-1-[(1-pentyl-1H-1,2,3-triazol-4-yl)methyl]piperidin-4-one] | 145 °C
13 | CCCn1cc(CN2CC(=Cc3ccc(C)cc3)C(=O)C(=Cc3ccc(C)cc3)C2)nn1 [11a, 3,5-Bis(4-methylbenzylidene)-1-((1-propyl-1H-1,2,3-triazol-4-yl)methyl)piperidin-4-one] | 165 °C
14 | CCCCCn1cc(CN2CC(=Cc3ccc(C(C)C)cc3)C(=O)C(=Cc3ccc(C(C)C)cc3)C2)nn1 [13c, 3,5-Bis(4-isopropylbenzylidene)-1-((1-pentyl-1H-1,2,3-triazol-4-yl)methyl)piperidin-4-one] | 143 °C
15 | CCCc1ccc(/C=C2\CN(S(=O)(=O)c3ccc(C)cc3)C/C(=C\c3ccc(CCC)cc3)C2=O)cc1 [3c, 3,5-Bis(4-propylbenzylidene)-1-tosylpiperidin-4-one] | 157 °C
16 | CCc1ccc(/C=C2\CN(CC)C/C(=C\c3ccc(CC)cc3)C2=O)cc1 [6e, 1-Ethyl-3,5-bis(4-ethylbenzylidene)piperidin-4-one] | 178 °C
17 | O=C1/C(=C/c2ccc(F)cc2)CN(S(=O)(=O)c2ccccc2)C/C1=C\c1ccc(F)cc1 [4j, 3,5-Bis(4-fluorobenzylidene)-1-(phenylsulfonyl)piperidin-4-one] | 181 °C
18 | CCN1C/C(=C\c2ccc(F)cc2)C(=O)/C(=C/c2ccc(F)cc2)C1 [6c, 1-Ethyl-3,5-bis(4-fluorobenzylidene)piperidin-4-one] | 114 °C
19 | Cc1ccc(/C=C2\CN(S(=O)(=O)c3ccccc3)C/C(=C\c3ccc(C)cc3)C2=O)cc1 [4a, 3,5-Bis(4-methylbenzylidene)-1-(phenylsulfonyl)piperidin-4-one] | 211 °C
20 | CCCc1ccc(/C=C2\CN(S(=O)(=O)c3ccccc3)C/C(=C\c3ccc(CCC)cc3)C2=O)cc1 [4d, 1-(Phenylsulfonyl)-3,5-bis(4-propylbenzylidene)piperidin-4-one] | 153 °C
21 | CC(C)(C)c1ccc(/C=C2\CN(S(=O)(=O)c3ccccc3)C/C(=C\c3ccc(C(C)(C)C)cc3)C2=O)cc1 [4f, 3,5-Bis(4-tert-butylbenzylidene)-1-(phenylsulfonyl)piperidin-4-one] | 194 °C
22 | COc1ccc(/C=C2\CN(S(=O)(=O)c3ccc(C)cc3)C/C(=C\c3ccc(OC)cc3)C2=O)cc1 [3f, 3,5-Bis(4-methoxybenzylidene)-1-tosylpiperidin-4-one] | 183 °C

Row | Structure (SMILES) | melting point
23 | CCN1C/C(=C\c2ccc(Br)cc2)C(=O)/C(=C/c2ccc(Br)cc2)C1 [6a, 3,5-Bis-(4-bromo-benzylidene)-1-ethyl-piperidin-4-one] | 178 °C
24 | CC(C)c1ccc(/C=C2\CN(S(=O)(=O)c3ccccc3)C/C(=C\c3ccc(C(C)C)cc3)C2=O)cc1 [4c, 3,5-Bis(4-isopropylbenzylidene)-1-(phenylsulfonyl)piperidin-4-one] | 170 °C
25 | CC(C)(C)c1ccc(/C=C2\CN(Cc3ccccc3)C/C(=C\c3ccc(C(C)(C)C)cc3)C2=O)cc1 [5g, 1-Benzyl-3,5-bis(4-tert-butylbenzylidene)piperidin-4-one] | 167 °C
26 | CCCCCn1cc(CN2CC(=Cc3ccc(C)cc3)C(=O)C(=Cc3ccc(C)cc3)C2)nn1 [11c, 3,5-Bis(4-methylbenzylidene)-1-((1-pentyl-1H-1,2,3-triazol-4-yl)methyl)piperidin-4-one] | 169 °C
27 | CCCCCn1cc(CN2CC(=Cc3ccc(CCC)cc3)C(=O)C(=Cc3ccc(CCC)cc3)C2)nn1 [15c, 1-[(1-Pentyl-1H-1,2,3-triazol-4-yl)methyl]-3,5-bis(4-propylbenzylidene)piperidin-4-one] | 134 °C
28 | CC(C)c1ccc(/C=C2\CN(Cc3ccccc3)C/C(=C\c3ccc(C(C)C)cc3)C2=O)cc1 [5e, 1-Benzyl-3,5-bis(4-isopropylbenzylidene)piperidin-4-one] | 157 °C
29 | CCCCn1cc(CN2CC(=Cc3ccc(C(C)(C)C)cc3)C(=O)C(=Cc3ccc(C(C)(C)C)cc3)C2)nn1 [14b, 1-[(1-Butyl-1H-1,2,3-triazol-4-yl)methyl]-3,5-bis(4-tert-butylbenzylidene)piperidin-4-one] | 145 °C
30 | CCCCCn1cc(CN2CC(=Cc3ccc(C(C)(C)C)cc3)C(=O)C(=Cc3ccc(C(C)(C)C)cc3)C2)nn1 [14c, 3,5-Bis(4-tert-butylbenzylidene)-1-[(1-pentyl-1H-1,2,3-triazol-4-yl)methyl]piperidin-4-one] | 146 °C
31 | CCCCc1ccc(C=C2CN(Cc3cn(CCCC)nn3)CC(=Cc3ccc(CCCC)cc3)C2=O)cc1 [16b, 1-[(1-Butyl-1H-1,2,3-triazol-4-yl)methyl]-3,5-bis(4-butylbenzylidene)piperidin-4-one] | 136 °C
32 | CCCCc1ccc(/C=C2\CN(Cc3ccccc3)C/C(=C\c3ccc(CCCC)cc3)C2=O)cc1 [5f, 1-Benzyl-3,5-bis(4-butylbenzylidene)piperidin-4-one] | 104 °C
33 | CCCCn1cc(CN2CC(=Cc3ccc(CC)cc3)C(=O)C(=Cc3ccc(CC)cc3)C2)nn1 [12b, 1-((1-Butyl-1H-1,2,3-triazol-4-yl)methyl)-3,5-bis(4-ethylbenzylidene)piperidin-4-one] | 150 °C
34 | COc1ccc(/C=C2\CN(S(=O)(=O)c3ccccc3)C/C(=C\c3ccc(OC)cc3)C2=O)cc1 [4h, 3,5-Bis(4-methoxybenzylidene)-1-(phenylsulfonyl)piperidin-4-one] | 217 °C
35 | CCCn1cc(CN2CC(=Cc3ccc(C(C)C)cc3)C(=O)C(=Cc3ccc(C(C)C)cc3)C2)nn1 [13a, 3,5-Bis(4-isopropylbenzylidene)-1-((1-propyl-1H-1,2,3-triazol-4-yl)methyl)piperidin-4-one] | 144 °C
36 | Cc1ccc(S(=O)(=O)N2C/C(=C\c3ccc(C(C)(C)C)cc3)C(=O)/C(=C/c3ccc(C(C)(C)C)cc3)C2)cc1 [3g, 3,5-Bis(4-tert-butylbenzylidene)-1-tosylpiperidin-4-one] | 220 °C
37 | CCc1ccc(/C=C2\CN(S(=O)(=O)c3ccccc3)C/C(=C\c3ccc(CC)cc3)C2=O)cc1 [4b, 3,5-Bis(4-ethylbenzylidene)-1-(phenylsulfonyl)piperidin-4-one] | 165 °C
38 | CCCCc1ccc(/C=C2\CN(S(=O)(=O)c3ccccc3)C/C(=C\c3ccc(CCCC)cc3)C2=O)cc1 [4g, 3,5-Bis(4-butylbenzylidene)-1-(phenylsulfonyl)piperidin-4-one] | 134 °C
39 | Cc1ccc(S(=O)(=O)N2C/C(=C\c3ccc(C(C)C)cc3)C(=O)/C(=C/c3ccc(C(C)C)cc3)C2)cc1 [3i, 3,5-Bis(4-isopropylbenzylidene)-1-tosylpiperidin-4-one] | 177 °C
40 | C#CCN1CC(=Cc2ccc(C(C)C)cc2)C(=O)C(=Cc2ccc(C(C)C)cc2)C1 [10c, 3,5-Bis(4-isopropylbenzylidene)-1-(prop-2-ynyl)piperidin-4-one] | 106 °C
41 | CCCCn1cc(CN2CC(=Cc3ccc(C(C)C)cc3)C(=O)C(=Cc3ccc(C(C)C)cc3)C2)nn1 [13b, 1-((1-Butyl-1H-1,2,3-triazol-4-yl)methyl)-3,5-bis(4-isopropylbenzylidene)piperidin-4-one] | 145 °C
42 | O=C1/C(=C/c2ccc(F)cc2)CN(Cc2ccccc2)C/C1=C\c1ccc(F)cc1 [5j, 1-Benzyl-3,5-bis(4-fluorobenzylidene)piperidin-4-one] | 159 °C
43 | Cc1ccc(/C=C2\CN(S(=O)(=O)c3ccc(C)cc3)C/C(=C\c3ccc(C)cc3)C2=O)cc1 [3d, 3,5-Bis(4-methylbenzylidene)-1-tosylpiperidin-4-one] | 187 °C
